Assay: xn = mol fraction of the nth substance listed
Details: 100 kPa, Liquid; for viscosity: Concentric cylinders viscometry; for mass density: Vibrating tube method

CCOC(=O)CCC(=O)OCC [diethyl butanedioate] + CCCC(=O)OCC
Details	mass density [kg/m3]	viscosity [mPa·s]
288.15 K, x2 = 0.0999	1032.25	2.784
288.15 K, x2 = 0.2	1018.97	2.407
288.15 K, x2 = 0.3003	1004.96	2.07
288.15 K, x2 = 0.3999	990.34	1.782
288.15 K, x2 = 0.5	974.86	1.537
288.15 K, x2 = 0.5997	958.7	1.334
288.15 K, x2 = 0.7	941.56	1.162
288.15 K, x2 = 0.7999	923.5	1.015
288.15 K, x2 = 0.8999	904.39	0.8744
293.15 K, x2 = 0.0999	1027.04	2.464
293.15 K, x2 = 0.2	1013.76	2.146
293.15 K, x2 = 0.3003	999.74	1.859
293.15 K, x2 = 0.3999	985.12	1.613
293.15 K, x2 = 0.5	969.64	1.402
293.15 K, x2 = 0.5997	953.46	1.225
293.15 K, x2 = 0.7	936.32	1.077
293.15 K, x2 = 0.7999	918.25	0.9435
293.15 K, x2 = 0.8999	899.13	0.8176
298.15 K, x2 = 0.0999	1021.84	2.202
298.15 K, x2 = 0.2	1008.55	1.932
298.15 K, x2 = 0.3003	994.54	1.684
298.15 K, x2 = 0.3999	979.9	1.471
298.15 K, x2 = 0.5	964.41	1.286
298.15 K, x2 = 0.5997	948.23	1.131
298.15 K, x2 = 0.7	931.08	1.002
298.15 K, x2 = 0.7999	913	0.8815
298.15 K, x2 = 0.8999	893.87	0.7679
303.15 K, x2 = 0.0999	1016.65	1.983
303.15 K, x2 = 0.2	1003.35	1.749
303.15 K, x2 = 0.3003	989.33	1.535
303.15 K, x2 = 0.3999	974.68	1.347
303.15 K, x2 = 0.5	959.18	1.185
303.15 K, x2 = 0.5997	942.99	1.048
303.15 K, x2 = 0.7	925.83	0.9351
303.15 K, x2 = 0.7999	907.74	0.8255
303.15 K, x2 = 0.8999	888.59	0.7228
308.15 K, x2 = 0.0999	1011.46	1.796
308.15 K, x2 = 0.2	998.15	1.593
308.15 K, x2 = 0.3003	984.12	1.405
308.15 K, x2 = 0.3999	969.46	1.239
308.15 K, x2 = 0.5	953.96	1.096
308.15 K, x2 = 0.5997	937.75	0.9742
308.15 K, x2 = 0.7	920.58	0.8745
308.15 K, x2 = 0.7999	902.47	0.7752
308.15 K, x2 = 0.8999	883.31	0.6811
313.15 K, x2 = 0.0999	1006.27	1.642
313.15 K, x2 = 0.2	992.95	1.465
313.15 K, x2 = 0.3003	978.91	1.297
313.15 K, x2 = 0.3999	964.25	1.149
313.15 K, x2 = 0.5	948.72	1.019
313.15 K, x2 = 0.5997	932.5	0.91
313.15 K, x2 = 0.7	915.31	0.8216
313.15 K, x2 = 0.7999	897.18	0.731
313.15 K, x2 = 0.8999	878	0.6451
318.15 K, x2 = 0.0999	1001.09	1.5
318.15 K, x2 = 0.2	987.76	1.341
318.15 K, x2 = 0.3003	973.7	1.193
318.15 K, x2 = 0.3999	959.02	1.061
318.15 K, x2 = 0.5	943.48	0.9464
318.15 K, x2 = 0.5997	927.25	0.8492
318.15 K, x2 = 0.7	910.04	0.7706
318.15 K, x2 = 0.7999	891.89	0.6883
318.15 K, x2 = 0.8999	872.69	0.6086
323.15 K, x2 = 0.0999	995.9	1.384
323.15 K, x2 = 0.2	982.56	1.245
323.15 K, x2 = 0.3003	968.49	1.113
323.15 K, x2 = 0.3999	953.79	0.9951
323.15 K, x2 = 0.5	938.24	0.8916
323.15 K, x2 = 0.5997	921.98	0.7992
323.15 K, x2 = 0.7	904.75	0.7302
323.15 K, x2 = 0.7999	886.58	0.6542
323.15 K, x2 = 0.8999	867.36	0.5785

From the NIST ThermoML archive (doi:10.1021/acs.jced.6b00640)
